“Also recorded” adds a separate entry of the source. Where a SMILES comes first, the peptide text is derived from it. [ ]: non-standard residue; d: D form. The star is where a group is joined. Sta = CC(C)C[C@H](N)[C@@H](O)CC(=O)O; Isovaleryl = CC(C)CC(=O)*; Nle = CCCC[C@H](N)C(=O)O; Cbz = O=C(OCc1ccccc1)*; CH2F = FC*
Key:
PC3 cells [1] = test: Mitochondrial superoxide (MitoSOX red) and cellular ROS in PC3 cells; assay type: cell-based, human
Method: (B) PC3 cells treated as in A were stained with the Image-iT LIVE green ROS Detection kit and examined by fluorescence microscopy at 24 h. […] (C) Quantification of MitoSOX red and ROS green fluorescence intensities by flow cytometry at 24 h. Cells were treated as in A and B. Error bars represent SEM (n=3).
Because mitochondria are the primary intracellular source of superoxide (O2^−) generation, we analyzed O2^− production using MitoSOX red, an O2^− indicator that accumulates in the mitochondria as a function of membrane potential and fluoresces upon oxidation and subsequent binding to DNA.

PC3 cells [2] = test: PC3 cell viability and cell death (PI exclusion, annexin V, caspase-3/7); assay type: cell-based, human
Method: Cell viability and cell cycle analysis. Cell number and viability was measured using trypan blue exclusion assay using a Vi-Cell Analyzer (Beckman Coulter), or labeled with 1 μg/ml PI in PBS/1% BSA followed by cytofluorometric analysis with a fluorescence-activated cell sorter (FACS) (Becton Dickinson). FITC-conjugated Annexin V was used for the assessment of phosphatidylserine exposure by FACS analysis. Caspase activation was analyzed using a Caspase-Glo 3/7 Assay kit (Promega). For cell cycle analysis, cells were fixed with drop-wise addition of chilled 70% ethanol, washed with PBS and resuspended in staining solution containing 50 μg/ml PI and 60 units of RNAse A. DNA content was analyzed by flow cytometry using the FlowJo and ModFit software (Becton Dickinson).

PC3 cells [3] = test: Autophagy markers in PC3 cells (EM AVs, GFP-LC3, LC3-II/LC3-I, MDC, AO); assay type: cell-based, human
Method: Western blot analysis, immunofluorescence, 1HC and TUNEL assay: For Western blot analysis, total protein lysates were subjected to SDS-PAGE and transferred to nitrocellulose. […] Detection and quantification were performed using an Odyssey infrared scanner (LICOR) using the manufacturer's software. For immunofluorescence staining, cells were fixed in 3% paraformaldehyde and permeabilized with 0.01% digitonin in PBS, followed by a rabbit polyclonal anti-LC3 (Abgent) primary antibody detected with a cy3-conjugated anti-rabbit secondary antibody (Jackson Immunoresearch). For IHC, formalin-fixed, paraffin-embedded specimens were collected. 5-μm-thick paraffin-embedded sections were stained using an anti-Ki-67 (MIB-1, DakoCytomation) antibody with the Dako ARK kit (Dako Corporation). Tissues were counterstained with haematoxylin, dehydrated, and mounted. In all cases, antigen retrieval was performed with the Dako Target Retrieval Kit as per manufacturer's instructions. For TUNEL assay, formalin-fixed, paraffin-embedded sections were stained using an in situ cell death detection kit (POD; Roche Diagnostic) according to the manufacturer's instructions.
Ultrathin sections were stained with uranyl acetate and lead citrate. Numbers of AV were counted on systematically sampled cytoplasmic areas of 4.5 μm^2 (n≧64 per condition). The percent AV area was measured by means of a square mesh grid laid over ≧5 sets of systematically sampled micrographs with each set covering a cytoplasmic area ≧80 μm^2. The average percent of apoptotic nuclei in tumor tissues was calculated from the number of apoptotic nuclei in 3 to 4 sets of 100 systematically counted tumor cell nuclei.
Multispectral imaging flow cytometry: Cells treated with various agents were stained with Acridine Orange and analyzed by the ImageStream system (Amnis Corporation, Seattle, Wash.) using the IDEAS image analysis program. The DNA AOGreen image and the vacuolar AO Red image were first compensated into separate channels, and then the percentage of apoptotic/anucleate cells (based on AO nuclear morphology and intensity) and vacuolated cells (AO Red+) were quantified. […] AORed Intensity is plotted on the second histogram with an arbitrary gate (R5) drawn to include events with the brightest AO Red intensity.

PC3 cells [4] = test: Microarray analysis of autophagy gene expression in PC3 cells; assay type: cell-based, human; conditions: 1 or 5 μM for 6 or 24 hours, normalized to DMSO
Method: PC3 cells were induced to express shRNA to indicated Akt isoforms for 72 hours by Doxycycline, RNA was extracted from both Dox treated (Dox+) or untreated control (Dox−) cells. Microarray analysis was carried out using Affymetrix chips. Ratios of the expression levels of each autophagy gene from Dox+ and Dox− samples are shown. Data are mean values from 3 independent experiments.
RNA was extracted from the cells. Microarray analysis was carried out using Affymetrix chips. Expression levels of each autophagy gene are normalized to the DMSO controls. Data are mean values from 3 independent experiments.

[5] = Autophagic vacuole accumulation by side scatter (SSC) in a flow cytometer; assay type: cell-based
Source text: Inhibitors include 3-phenyl-2-(4-((4-(5-(pyridin-2-yl)-1H-1,2,4-triazol-3-yl)piperidin-1-yl)methyl)phenyl)-1,6-naphthyridin-5(6H)-one (II-3), benzyl 2-(4-(3-ethylureido)phenyl)-4-(1,4-oxazepan-4-yl)-5H-pyrrolo[3,4-d]pyrimidine-6(7H)-carboxylate (III-1); 1-ethyl-3-(4-(4-morpholino-7-(pyrimidin-2-yl)-5,6,7,8-tetrahydropyrido[3,4-d]pyrimidin-2-yl)phenyl)urea (III-2), (R)-1-(44(2-(2-aminopyrimidin-5-yl)-7-methyl-4-morpholinothieno[3,2-d]pyrimidin-6-yl)methyl)piperazin-1-yl)-2-hydroxypropan-1-one (III-3), 4-(2-(1H-indazol-4-yl)-6-((4-(methylsulfonyl)piperazin-1-yl)methyl)thieno[3,2-d]pyrimidin-4-yl)morpholine (III-6), (S)—N-(4-(benzo[d][1,3]dioxol-5-yl)thiazol-2-yl)-N-(3-(2-formylpiperidin-1-yl)propyl)thiophene-2-carboxamide (IV-2) and Rapamycin.
FIG. 14 depicts CQ (10 μM) increases the number and size of autophagic vacuoles when combined with the various mTOR, PI3K, and Akt inhibitors.

Akt = test: Immunoblot of Akt and S6 phosphorylation in PC3 cells; assay type: cell-based, human; conditions: 5 mM NAC
Source text: Western blot analysis, immunofluorescence, 1HC and TUNEL assay: For Western blot analysis, total protein lysates were subjected to SDS-PAGE and transferred to nitrocellulose. Antibodies used were: anti-Akt1, anti-Akt2, anti-Akt3, anti-total-Akt, anti-p-Akt (Ser473), anti-p-Akt (Thr308), anti-p-S6 (Ser235/236), anti-PARP and anti-cleaved caspase-3 (Cell Signaling Technology); anti-p-PRAS40 (Invitrogen); anti-p27^Kip1 (Santa Cruz Biotechnology); anti-LC3 (Novus); anti-LAMP2 and anti-Cathepsin D (BD Biosciences); and anti-GAPDH (Advanced Immunochemical Inc.). Primary antibodies were detected using IR Dye 800-conjugated (Rockland) and Alexa-Fluoro 680-conjugated (Molecular Probes) species-selective secondary antibodies. Detection and quantification were performed using an Odyssey infrared scanner (LICOR) using the manufacturer's software. For immunofluorescence staining, cells were fixed in 3% paraformaldehyde and permeabilized with 0.01% digitonin in PBS, followed by a rabbit polyclonal anti-LC3 (Abgent) primary antibody detected with a cy3-conjugated anti-rabbit secondary antibody (Jackson Immunoresearch). For IHC, formalin-fixed, paraffin-embedded specimens were collected. 5-μm-thick paraffin-embedded sections were stained using an anti-Ki-67 (MIB-1, DakoCytomation) antibody with the Dako ARK kit (Dako Corporation). Tissues were counterstained with haematoxylin, dehydrated, and mounted. In all cases, antigen retrieval was performed with the Dako Target Retrieval Kit as per manufacturer's instructions. For TUNEL assay, formalin-fixed, paraffin-embedded sections were stained using an in situ cell death detection kit (POD; Roche Diagnostic) according to the manufacturer's instructions.

Compound | rescue of cell death induced by II-4 (Akti) and CQ (PC3 cells [2]) | autophagic vacuole accumulation (SSC), inhibitor alone [5] | further results
Cn1cnc(N)c2ncnc1-2 [3-MA, 3-methyladenine] | – | – | effect of 3-MA pretreatment on ROS levels (PC3 cells [1]): reduced ROS signals generated by CQ, Akti and Akti+CQ; also recorded: reduced ROS levels induced by II-4; effect of 3-MA pretreatment on cell death promoted by CQ or Ba in shAkt expressing cells (PC3 cells [2]; 1 mM 3-MA): delayed this effect; also recorded: suppressed the cell death-promoting effect of either CQ or Ba; effect of 3-MA on rate of cell death in III-5 and CQ treated cells (PC3 cells [2]; 3-MA pretreatment): slowed down the rate of cell death; effect of 3-MA on LC3-II to -I ratios and MDC+ vacuoles in III-5 and CQ treated cells (PC3 cells [3]; 3-MA pretreatment): suppressed this effect; also recorded: reduced both LC3-II to -I ratios and the accumulation of MDC^+ vacuoles
CO/C1=C\C(C)=C\[C@@H](C)[C@@H](O)[C@@H](C)C/C(C)=C/C=C/[C@H](OC)[C@@H]([C@@H](C)[C@@H](O)[C@H](C)[C@@]2(O)C[C@@H](O)[C@H](C)[C@@H](C(C)C)O2)OC1=O [Ba, bafilomycin A1] | – | – | cell death in combination with shAkt123 (PC3 cells [2]; Dox, 10 μM CQ or […] Ba, 0.5% or 0% FBS): promoted cell death in combination with shAkt 123
CCCNC(=O)[C@H]1O[C@@H]1C(=O)N[C@H](C(=O)N1CCC[C@H]1C(=O)OC)[C@@H](C)CC [CA-074-Me] | Neither of the broad-spectrum cysteine protease inhibitors zFA.fmk and N-Acetyl-Leu-Leu-Nle-CHO nor a more specific cathepsin B inhibitor CA-074-Me showed significant rescue of cell death | – | –
Cc1nc(-c2ccc(CN3CCC(n4c(=O)[nH]c5ccccc54)CC3)cc2)c(-c2ccccc2)nc1O [II-1, 1-(1-(4-(5-hydroxy-6-methyl-3-phenylpyrazin-2-yl)benzyl)piperidin-4-yl)-1H-benzo[d]imidazol-2(3H)-one] | – | – | autophagy gene expression (PC3 cells [4]): induce autophagy gene expression
O=c1[nH]ccc2nc(-c3ccc(CN4CCC(c5n[nH]c(-c6ccccn6)n5)CC4)cc3)c(-c3ccccc3)cc12 [II-3, 3-phenyl-2-(4-((4-(5-(pyridin-2-yl)-1H-1,2,4-triazol-3-yl)piperidin-1-yl)methyl)phenyl)-1,6-naphthyridin-5(6H)-one] | – | induce increased autophagic vacuole accumulation | –
CCNC(=O)Nc1ccc(-c2nc3c(c(N4CCCOCC4)n2)CN(C(=O)OCc2ccccc2)C3)cc1 [III-1, benzyl 2-(4-(3-ethylureido)phenyl)-4-(1,4-oxazepan-4-yl)-5H-pyrrolo[3,4-d]pyrimidine-6(7H)-carboxylate] | – | induce increased autophagic vacuole accumulation | –
CCNC(=O)Nc1ccc(-c2nc3c(c(N4CCOCC4)n2)CCN(c2ncccn2)C3)cc1 [III-2, 1-ethyl-3-(4-(4-morpholino-7-(pyrimidin-2-yl)-5,6,7,8-tetrahydropyrido[3,4-d]pyrimidin-2-yl)phenyl)urea] | – | induce increased autophagic vacuole accumulation | –
Cc1c(CN2CCN(C(=O)[C@@H](C)O)CC2)sc2c(N3CCOCC3)nc(-c3cnc(N)nc3)nc12 [III-3] | – | induce increased autophagic vacuole accumulation | –
NC(=O)[C@@H]1CCCCN1CCCN(C(=O)c1cccs1)c1nc(-c2cc(-c3ccccc3)no2)cs1 [IV-1, (S)-1-(3-(N-(4-(3-phenylisoxazol-5-yl)thiazol-2-yl)thiophene-2-carboxamido)propyl)piperidine-2-carboxamide] | – | – | autophagy gene expression (PC3 cells [4]): induce autophagy gene expression
O=C[C@@H]1CCCCN1CCCN(C(=O)c1cccs1)c1nc(-c2ccc3c(c2)OCO3)cs1 [IV-2, (S)—N-(4-(benzo[d][1,3]dioxol-5-yl)thiazol-2-yl)-N-(3-(2-formylpiperidin-1-yl)propyl)thiophene-2-carboxamide] | – | induce increased autophagic vacuole accumulation | –
CCCC[C@@H](C=O)NC(=O)[C@H](CC(C)C)NC(=O)[C@H](CC(C)C)NC(C)=O [N-Acetyl-Leu-Leu-Nle-CHO] (Ac-Leu-Leu-[Nle]-aldehyde) | Neither of the broad-spectrum cysteine protease inhibitors zFA.fmk and N-Acetyl-Leu-Leu-Nle-CHO nor a more specific cathepsin B inhibitor CA-074-Me showed significant rescue of cell death | – | –
CC(=O)N[C@@H](CS)C(=O)O [NAC, N-acetylcysteine] | NAC rescued cell death induced by Akti+CQ; also recorded: rescued cell viability in the presence of II-4 and CQ | – | effect of NAC on MitoSOX Red signal (PC3 cells [1]; 5 mM NAC): reduced MitoSOX Red signal induced by the various treatments; effect of NAC on Akti's inhibition of pAkt or pS6 (Akt): did not affect Akti's ability to inhibit pAkt or pS6; effect of NAC on Akti-induced autophagy markers (PC3 cells [3]; 5 mM NAC): counteracted all these effects induced by Akti with or without CQ; also recorded: reduced Akti-induced LC3 and GFP-LC3 lipidation, p62 degradation, and GFP-LC3 puncta formation
CO[C@H]1C[C@@H]2CC[C@@H](C)[C@@](O)(O2)C(=O)C(=O)N2CCCC[C@H]2C(=O)O[C@H]([C@H](C)C[C@@H]2CC[C@@H](O)[C@H](OC)C2)CC(=O)[C@H](C)/C=C(\C)[C@@H](O)[C@@H](OC)C(=O)[C@H](C)C[C@H](C)/C=C/C=C/C=C/1C [Rapamycin, rapamycin] | – | induce increased autophagic vacuole accumulation | –
CC(C)CC(=O)N[C@H](C(=O)N[C@H](C(=O)N[C@@H](CC(C)C)[C@@H](O)CC(=O)N[C@@H](C)C(=O)N[C@@H](CC(C)C)[C@@H](O)CC(=O)O)C(C)C)C(C)C [pepstatin A] (Isovaleryl-VV[Sta]A[Sta]-OH) | – | – | cell death in combination with II-4 (Akti) (PC3 cells [2]): promoted cell death together with Akti-112
CC(NC(=O)[C@H](Cc1ccccc1)NC(=O)OCc1ccccc1)C(=O)CF (stereo partly shown) [zFA.fmk] | Neither of the broad-spectrum cysteine protease inhibitors zFA.fmk and N-Acetyl-Leu-Leu-Nle-CHO nor a more specific cathepsin B inhibitor CA-074-Me showed significant rescue of cell death | – | –
COC(=O)C[C@H](NC(=O)[C@H](C)NC(=O)[C@@H](NC(=O)OCc1ccccc1)C(C)C)C(=O)CF [zVAD.fmk] (Cbz-Val-Ala-Asp(OMe)-CH2F) | partially rescued cell death at all concentrations tested | – | –

Source: patent US20140004209A1, “AUTOPHAGY INDUCER AND INHIBITOR COMBINATION THERAPY FOR THE TREATMENT OF NEOPLASMS” (GENENTECH, INC., priority 2010, published 2014)
